Assay results taken from patent US20180256596A1, “METHOD AND TOPICAL COMPOSITION FOR THE TREATMENT OF ROSACEA AND SKIN ERYTHEMA USING PYRITHIONE ZINC” (priority 2017, published 2018).

System: facial Rosacea
Experiment: clinical type observations of topical application to facial skin
Type: in vivo
Details: pyrithione zinc aqueous solution of 1% concentration strength as sole active ingredient
Description: In usage, the fluid composition of the invention is to be administered topically by a vehicle or carrier medium compatible with application to the skin. A useful regimen would be to a) mix 1 part of a 1% concentration strength pyrithione zinc aqueous solution with 3 parts of a cocoa butter emulsion moisturizer cream carrier; b) apply the fluid composition to the facial area of concern; c) leave the fluid composition for 2-3 minutes at the area of application; and d) rinse it off. […] For a more resistant condition of facial Rosacea, the regimen would be essentially the same—but with an increased concentration strength of pyrithione zinc aqueous solution, as by the addition of further pyrithione zinc (or zinc pyrithione) crystals to the aqueous formulation.

[O-]n1ccccc1=S.[O-]n1ccccc1=S.[Zn+2] [pyrithione zinc, Bis [1-hydroxy-2(1H)-pyridinethionato-O,S] (T-4) zinc]
redness, flushing and inflammation associated with facial Rosacea and skin erythema: significantly reducing the redness, flushing and inflammation
